Laboratory results reported in patent US20240342255A1, “TARGETING 3-KETODIHYDROSPHINGOSINE REDUCTASE (KDSR) IN CANCER” (UNIVERSITY OF MASSACHUSETTS, priority 2021, published 2024).
“And” between values parts separate entries of the source, which are not always exact repeats. Identical values can stand only once. Residues, ends and D or L forms follow the SMILES beside them. *: point of attachment. Cbz = O=C(OCc1ccccc1)*

Tests used:
Assay type in all cases: cell-based
DLD1 cells [1] = test: Cell viability (CellTiter-Glo) with exogenous 3KDS treatment
Description: Cell viability was measured using CellTiter-Glo 2.0 Cell Viability Assay (Promega), which measures the number of viable (metabolically active) cells in culture by quantitating the amount of ATP present. CellTiter-Glo (CTG) Reagent and 96 well plates containing the cells were equilibrated to room temperature, 20 ul of CTG reagent was added to each well of cells and incubated for 20 minutes protected from light. Luminescence was read with an integration time of 1.0 sec using the Beckman Coulter DTX880 Multimode Detector plate reader.
For determination of relative viability as depicted in figures, CTG was measured at 2 different timepoints. The first viability measurement was taken as the baseline on the day after cells were plated to 96 wells, and the second viability measurement was taken at a later timepoint (1-5 days after baseline) to calculate the fold change viable cells over time for each condition (Day X CTG/Baseline CTG). These fold change values were then divided by the fold change of the control condition (=1.0) to determine the relative viability.

DLD1 cells [2] = test: Cell morphology by light microscope / calnexin immunofluorescence
DLD1 cells [3] = test: Western blot of K48 ubiquitinated proteins; details: DLD1 cells treated with MG132 (FIG. 4C)
Description: (§1) Cells were washed in cold PBS and resuspended in 1% Triton-X 100 containing protease inhibitor cocktail and lysed on ice. Following cell lysis, samples were centrifuged at 13,000 rpm at 4° C. for 10 min to remove cell debris and the supernatant (cell lysate) was collected. The protein concentration of each lysate was measured by Bradford Assay. Western blot samples were prepared by diluting lysates in 6× Laemmli Buffer and boiled at 95° C. for 10 min. Samples were loaded to polyacrylamide gels at equal protein concentrations and analyzed by standard SDS-PAGE western blotting techniques. Protein levels were detected using HRP-conjugated secondary antibodies and chemiluminescent substrates (Pierce ECL or Pico PLUS).

DLD1 cells [4] = test: Protein aggresome staining; details: 3 μM MG132, 18 hr
Description: Cells were grown on coverslips coated with PDL/laminin and were stained for protein aggresomes at 9 days post lentiviral infection for CTRL or KDSR KO or 18 hr post treatment with vehicle or 3 uM MG132. Protein aggresomes were detected using the PROTOEOSTAT Aggresome detection kit (Enzo Life Sciences), which contains a dye that fluoresces upon intercalation into the cross-beta spine of protein structures found in misfolded and aggregated proteins. For aggresome staining, cells were fixed in 4% PFA, washed in PBS, and permeabilized in 0.5% TXB on ice with gentle shaking for 30 minutes. Cells were washed in PBS following permeabilization and were subsequently incubated with the Aggresome Detection Reagent diluted 1:2000 in PBS for 45 min at room temperature protected from light. Cells were washed with PBS after staining and coverslips were mounted to microscope slides using ProLong Gold Antifade Mountant containing DAPI. Cells were imaged using the Zeiss LSM700 confocal microscope and Zen Black 2012 Software.

DLD1 cells [5] = test: LC-MS quantification of 3KDS in cultured cells
Description: The levels of 3-ketodihydrosphingosine (3KDS) were quantified in both cells grown in culture and in tumor tissues from the in vivo xenograft experiment. Lipid analysis was performed at the UCSD Lipidomics Core^17. For the in vitro experiment, DLD1 cells were infected for lentiviral transduction of pLCv2 with nontargeting CTRL guide, KDSR g1, or SPTLC1 g1. Cells were selected with puromycin for 5 days and were treated with the appropriate conditions (vehicle, 50 uM palmitate, 15 uM myriocin) at 6 days post infection. Cells were trypsinized, quickly washed 2× in cold PBS, centrifuged, and the cell pellet was collected for analysis at 8 days post lentiviral infection and 48 hr post treatment. 3KDS quantification was normalized to the protein content of n=3 independently prepared cell extracts for each condition.
Samples were extracted with DCM/MeOH (1:1) and 1× internal standards were added to extracts. Samples were vortexed, sonicated for 10 minutes, and then centrifuged at 5000 rpm for 5 min. Samples were re-extracted, combined, and dried down in a speed vac. Samples were run on the ACQUITY UPLC System (Waters) on a Phenomenex Kinetex C18 column. Mass spectrometry analysis was performed on the Sciex 6500 Qtrap mass spectrometer and data were analyzed using Sciex Analyst and Multiquant software packages.

DLD1 cells [6] = test: Myriocin rescue and palmitate synergy viability experiments in KDSR KO cells
Description: Cells were plated to 6 wells and infected with lentiviruses containing pLCv2 CTRL or guides targeting KDSR. Cells were selected with puromycin for 4-5 days and were then counted and plated to 96 well plates at 6 days post lentiviral infection at 600-800 cells/well in technical triplicate or quadruplicate. Baseline cell viability was read at 7 days post infection, at which time the other 96 well plates (to be read at later timepoints) were treated with DMSO vehicle or 2 uM myriocin for rescue experiments or with EtOH vehicle or 50 uM palmitate for synergy experiments. For myriocin rescue experiments, subsequent CTG readings were taken at days 3 and 5 post treatment (10 and 12 days post infection) to determine the effect of SPT inhibition on KDSR KO toxicity. For synergy experiments, subsequent CTG readings were taken at 24, 48, and 72 hr post treatment (8, 9, and 10 days post infection) to measure the effect of KDSR KO and palmitate treatment on cell viability relative to CTRL vehicle treated cells.
To determine whether KDSR KO and 50 uM palmitate have a synergistic toxic effect on cells (FIG. 2C), we used the Bliss Independence Model. […]

DLD1 cells [7] = test: Lipid free viability assay; details: 15 μM myriocin, 72 hr, 10% charcoal stripped serum (FIG. 1F)
Description: DLD1 cells were grown in media with 10% FBS (normal growth condition) or 10% charcoal stripped serum (lipid free condition) for 1 week prior to lentiviral infection for CRISPR-mediated gene KO. Cells were infected in 6 wells, selected with puromycin, and plated to 96 wells as described previously in the appropriate serum conditions throughout the entirety of the experiment. Baseline CTG was measured at day 7 post infection, and subsequently at day 10 post infection. For the myriocin treated condition, CTRL cells were treated with 15 μM myriocin at day 7 post infection and were treated for 72 hr at the time of day 10 CTG measurement. Viability was calculated over the course of 3 days of growth and measured relative to CTRL untreated condition.

DLD1 cells [8] = test: LC-MS quantification of sphingomyelin and ceramide after CRISPR-Cas9 gene KO; details: biological replicates (1)-(3); for Total (RATIO), Cer + SM by LC-MS / Cer (RATIO), total ceramide level by LC-MS / SM (RATIO), total sphingomyelin level by LC-MS: 8 days post lentiviral infection; for Cer (RATIO), total ceramide level by LC-MS / SM (RATIO), total sphingomyelin level by LC-MS: normalized intensities relative to internal standards per mg protein
Description: DLD1 cells were plated to 6 wells and infected for lentiviral transduction of lentiCRISPR v2 with nontargeting CTRL guide, KDSR g1, or SPTLC1 g1, with each condition infected in biological triplicate. Cells were selected with puromycin for 5 days and collected for analysis at 8 days post lentiviral infection. Cells were trypsinized, quickly washed 2× in cold PBS, centrifuged, and the cell pellet was collected for analysis. Lipid analysis was performed at the UCSD Lipidomics Core^17. For quantification of sphingomyelin and ceramide species, samples were extracted via Butanol-Methanol (BUME) with 100 ul/sample. The lipid (top) layer was collected, solvent was removed, and samples were reconstituted in 100 ul LC solvent (18:1:1, IPA/DCM/MeOH). Samples were run on Reverse Phase-Ultra Performance Liquid Chromatography (Thermo Vanquish UPLC) on the Cortecs T3 C18 column. Mass spectrometry was performed on the Thermo Q Exactive Mass Spectrometer with MS/MS data dependent acquisition scan mode and analyzed with Lipid Data Analyzer (LDA) and LipidSearch software. All data are expressed as normalized intensities relative to exactly measured internal standards and constitute relative abundances per mg protein. For the identification of each lipid molecular species including its exact fatty acid composition, we used MS/MS footprinting techniques. Details of methods and nomenclature used were adapted from a previous study^18.
Total sphingomyelin levels under each condition were calculated as the sum of 121 analytes and total ceramide levels as the sum of 81 analytes. The ratio of total sphingomyelin and ceramide levels in KDSR and SPTLC1 KO cells were calculated relative to CTRL cells as shown in FIG. 1e. The select species of sphingomyelins and ceramides shown in Extended Data FIG. 2 represent the top 10 most abundant species that were detected in all 3 biological replicate samples of the CTRL condition to show the effect of SPTLC1 and KDSR KO on the most abundant sphingolipids compared to CTRL.

KDSR = test: Western blot of KDSR protein after CRISPR/Cas9 targeting in non-cancerous cell lines; details: seven non-cancerous cell lines (THLE3, CCD841CON, CCD18Lu, HIEC6, HS67, GM05565, GM02037), FIGS. 10A-10G
Description: as §1
Western blots were performed to confirm that KDSR expression was reduced or eliminated in the cell line after CRISPR/Cas9 KO of KDSR. […] For each experiment, actin served as a loading control.

CCCCCCCCCCCCCCCC(=O)C(N)CO (stereo not drawn) [3KDS, 3-ketodihydrosphingosine]
effect of exogenous 3KDS on cell viability (DLD1 cells [1]; DLD1 cells, various doses, 24 hr (FIG. 2B)): cell toxicity
toxicity of 3KDS in KDSR KO cells (DLD1 cells [1]; KDSR g1 and g2 KO DLD1 cells, 5 μM 3KDS, 24 hr (FIG. 6)): even more toxic
cell morphology after 3KDS treatment (DLD1 cells [2]; wildtype DLD1 cells, 10 μM 3KDS, 24 hr (FIG. 2G)): aberrant ‘vacuolar’ morphology

CC(C)C[C@@H](C=O)NC(=O)[C@H](CC(C)C)NC(=O)[C@H](CC(C)C)NC(=O)OCc1ccccc1 [MG132, MG-132] (Cbz-Leu-Leu-Leu-aldehyde)
morphological phenotype / ER structure (DLD1 cells [2]; DLD1 cells, 3 μM MG132, 18 hr, light microscope and calnexin IF (FIG. 4D)): strongly resembled the aberrant enlarged ER structures
levels of K48 ubiquitinated proteins (DLD1 cells [3]): accumulation of K48 ubiquitinated proteins
protein aggresome formation (DLD1 cells [4]): induced formation of protein aggresomes

CCCCCCC(=O)CCCCCC/C=C/C[C@@H](O)[C@H](O)[C@@](N)(CO)C(=O)O [myriocin, Myriocin]
3KDS accumulation in KDSR KO cells under SPT inhibition (DLD1 cells [5]; KDSR KO DLD1 cells, 15 μM myriocin, 48 hr (FIG. 2F)): prevented 3KDS accumulation
effect of myriocin on viability of KDSR KO cells (DLD1 cells [6]; 2 μM myriocin, 72 hr (FIG. 2D)): rescued against the loss of viability
viability in lipid-free serum (DLD1 cells [7]): detrimental to cancer cell viability
morphology of KDSR KO cells under SPT inhibition (DLD1 cells [2]; KDSR KO DLD1 cells, 15 μM myriocin, 48 hr (FIG. 2G)): rescued the aberrant morphological phenotype

CCCCCCCCCCCCCCCC(=O)O [palmitate, Palmitic Acid]
accumulation of 3KDS (DLD1 cells [5]; KDSR KO DLD1 cells treated with 50 μM palmitate, 48 hr, relative to CTRL vehicle (FIG. 2F)): 800 fold
effect of palmitate on viability of KDSR KO cells (Bliss independence) (DLD1 cells [6]; 50 μM palmitate, 48 hr (FIG. 2C)): synergized with the toxic effect of KDSR KO

KDSR g1: CRISPR-Cas9 guide RNA targeting KDSR, TGTGTGCAAACCAGAACAGG, SEQ ID NO: 4 (listed as DNA, chemistry not given here; listed as Homo sapiens)
Total (RATIO), Cer + SM by LC-MS (DLD1 cells [8]): 535.9 and 709.0 and 681.9
Cer (RATIO), total ceramide level by LC-MS (DLD1 cells [8]): 67.9 and 101.4 and 99.2
SM (RATIO), total sphingomyelin level by LC-MS (DLD1 cells [8]): 468.0 and 607.6 and 582.7
Cer (Percentage of total) (DLD1 cells [8]): 12.7% and 14.3% and 14.5%
SM (Percentage of total) (DLD1 cells [8]): 87.3% and 85.7% and 85.5%
KDSR expression after CRISPR/Cas9 targeting (KDSR): eliminated or substantially reduced

KDSR g2: CRISPR-Cas9 guide RNA targeting KDSR, GGCAAACTTGGATGCAGAGT, SEQ ID NO: 5 (listed as DNA, chemistry not given here; listed as Homo sapiens)
KDSR expression after CRISPR/Cas9 targeting (KDSR): eliminated or substantially reduced

SPTLC1 g1: CRISPR-Cas9 guide RNA targeting SPTLC1, GTGCTACTCACCTTAACCCT, SEQ ID NO: 2 (expressed or natural sequence; listed as Homo sapiens)
Total (RATIO), Cer + SM by LC-MS (DLD1 cells [8]): 720.1 and 485.8 and 520.4
Cer (RATIO), total ceramide level by LC-MS (DLD1 cells [8]): 66.2 and 36.6 and 66.9
SM (RATIO), total sphingomyelin level by LC-MS (DLD1 cells [8]): 653.9 and 449.2 and 453.5
Cer (Percentage of total) (DLD1 cells [8]): 9.2% and 7.5% and 12.9%
SM (Percentage of total) (DLD1 cells [8]): 90.8% and 92.5% and 87.1%
